# Measurements reported in patent US11787796B2, “Plasma Kallikrein inhibitors and uses thereof” (Takeda Pharmaceutical Company Limited, priority 2019, dated 2023).
# Target: human activated kallikrein enzyme (Homo sapiens (Human), UniProt P03952)
# Assay: Plasma kallikrein inhibition assay with fluorogenic peptide substrate, 500 pM activated kallikrein format
# Format: biochemical
# Details: 500 pM activated kallikrein; 300 uM Pro-Phe-Arg-7-amido-4-methylcoumarin substrate; 30 min preincubation, 10 min reaction at RT; read-out: Primary Dose Response Assay: Average EC50
# In short: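 Pro-Phe-Arg-7-amido-4-methylcoumarin substrate (300 uM) started reactions after a 30 min RT enzyme–inhibitor preincubation. This format used 500 pM activated human kallikrein in Tris pH 7.5 buffer with EDTA, NaCl, PEG-400 and Triton X-100. AMC fluorescence (380/460 nm) was measured after 10 min at RT.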
# Chain of human activated kallikrein enzyme (P03952 391-638): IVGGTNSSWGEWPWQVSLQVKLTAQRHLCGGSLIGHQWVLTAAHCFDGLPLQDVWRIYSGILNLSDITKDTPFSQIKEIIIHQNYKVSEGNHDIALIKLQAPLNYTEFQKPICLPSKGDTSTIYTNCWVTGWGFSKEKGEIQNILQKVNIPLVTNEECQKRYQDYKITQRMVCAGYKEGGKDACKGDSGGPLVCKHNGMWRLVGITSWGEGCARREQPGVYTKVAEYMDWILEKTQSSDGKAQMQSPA
# Chain of human activated kallikrein enzyme (P03952 20-390 partner): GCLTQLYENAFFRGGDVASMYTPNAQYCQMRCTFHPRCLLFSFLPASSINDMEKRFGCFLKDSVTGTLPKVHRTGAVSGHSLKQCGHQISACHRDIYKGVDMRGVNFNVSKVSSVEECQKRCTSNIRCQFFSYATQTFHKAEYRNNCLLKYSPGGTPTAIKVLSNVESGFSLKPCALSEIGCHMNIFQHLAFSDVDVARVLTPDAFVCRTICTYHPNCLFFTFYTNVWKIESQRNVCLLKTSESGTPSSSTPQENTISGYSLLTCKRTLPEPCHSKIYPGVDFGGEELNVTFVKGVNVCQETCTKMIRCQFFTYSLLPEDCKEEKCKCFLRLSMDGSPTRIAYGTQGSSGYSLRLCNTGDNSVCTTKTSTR
row,EC50 [nM],Compound
1,≤ 1,"CCOC(=O)c1cc(C2CC2)cn2cc(Cn3cc(C(=O)NCc4c(C)cc(C(=N)N)cc4C)nn3)nc12 [Example I-112, ethyl 2-((4-((4-carbamimidoyl-2,6-dimethylbenzyl)carbamoyl)-1H-1,2,3-triazol-1-yl)methyl)-6-cyclopropylimidazo[1,2-a]pyridine-8-carboxylate]"
2,≤ 1,"CCOC(=O)CCc1cc(C2CC2)cn2cc(Cn3cc(C(=O)NCc4c(-n5cnnn5)ccc(Cl)c4F)nn3)nc12 [Example I-113, ethyl 3-(2-((4-((3-chloro-2-fluoro-6-(1H-tetrazol-1-yl)benzyl)carbamoyl)-1H-1,2,3-triazol-1-yl)methyl)-6-cyclopropylimidazo[1,2-a]pyridin-8-yl)propanoate]"
3,100 to 2000,"O=C(NCc1c(N2CC3(COC3)C2)ccc(Cl)c1F)c1cnn(Cc2cn3cc(C4CC4)ccc3n2)c1 [Example I-114, N-(3-chloro-2-fluoro-6-(2-oxa-6-azaspiro[3.3]heptan-6-yl)benzyl)-1-((6-cyclopropylimidazo[1,2-a]pyridin-2-yl)methyl)-1H-pyrazole-4-carboxamide]"
4,≤ 1,"Cc1cc(C(=N)N)cc(C)c1CNC(=O)c1cn(Cc2cn3cc(C4CC4)ccc3n2)nn1 [Example I-115, N-(4-carbamimidoyl-2,6-dimethylbenzyl)-1-((6-cyclopropylimidazo[1,2-a]pyridin-2-yl)methyl)-1H-1,2,3-triazole-4-carboxamide]"
5,≤ 1,"O=C(NCc1c(-n2cnnn2)ccc(Cl)c1F)c1cnn(Cc2cn3cc(C4CC4)ccc3n2)c1 [Example I-116, N-(3-chloro-2-fluoro-6-(1H-tetrazol-1-yl)benzyl)-1-((6-cyclopropylimidazo[1,2-a]pyridin-2-yl)methyl)-1H-pyrazole-4-carboxamide]"
6,> 7100,"O=C(NCc1cc(Cl)ccc1-c1nn[nH]n1)c1cnn(Cc2cn3cc(C4CC4)ccc3n2)c1 [Example I-117, N-(5-chloro-2-(2H-tetrazol-5-yl)benzyl)-1-((6-cyclopropylimidazo[1,2-a]pyridin-2-yl)methyl)-1H-pyrazole-4-carboxamide]"
7,≤ 1,"COc1ccc(C#N)c(CNC(=O)c2cnn(Cc3cn4cc(C5CC5)cc(C#N)c4n3)c2)c1F [Example I-118, N-(6-cyano-2-fluoro-3-methoxybenzyl)-1-((8-cyano-6-cyclopropylimidazo[1,2-a]pyridin-2-yl)methyl)-1H-pyrazole-4-carboxamide]"
8,1 to 10,"COc1ccc(C#N)c(CNC(=O)c2cnn(Cc3cn4cc(C5CC5)ccc4n3)c2)c1F [Example I-119, N-(6-cyano-2-fluoro-3-methoxybenzyl)-1-((6-cyclopropylimidazo[1,2-a]pyridin-2-yl)methyl)-1H-pyrazole-4-carboxamide]"
9,10 to 100,"O=C(NCc1cc(=O)[nH]c2ccccc12)c1cnn(Cc2cn3cc(C4CC4)ccc3n2)c1 [Example I-120, 1-((6-cyclopropylimidazo[1,2-a]pyridin-2-yl)methyl)-N-((2-oxo-1,2-dihydroquinolin-4-yl)methyl)-1H-pyrazole-4-carboxamide]"
10,100 to 2000,"O=C(NCc1cccc(Cl)c1)c1cnn(Cc2cn3cc(C4CC4)ccc3n2)c1 [Example I-121, N-(3-chlorobenzyl)-1-((6-cyclopropylimidazo[1,2-a]pyridin-2-yl)methyl)-1H-pyrazole-4-carboxamide]"
11,1 to 10,"O=C(NCc1cc(=O)[nH]c2ccc(Br)cc12)c1cnn(Cc2cn3cc(C4CC4)ccc3n2)c1 [Example I-122, N-((6-bromo-2-oxo-1,2-dihydroquinolin-4-yl)methyl)-1-((6-cyclopropylimidazo[1,2-a]pyridin-2-yl)methyl)-1H-pyrazole-4-carboxamide]"
12,10 to 100,"Cc1cc2[nH]cc(Cl)c2c(C)c1CNC(=O)c1cnn(Cc2cn3cc(C4CC4)ccc3n2)c1 [Example I-123, N-((3-chloro-4,6-dimethyl-1H-indol-5-yl)methyl)-1-((6-cyclopropylimidazo[1,2-a]pyridin-2-yl)methyl)-1H-pyrazole-4-carboxamide]"
13,10 to 100,"Cc1cc2[nH]ccc2c(C)c1CNC(=O)c1cnn(Cc2cn3cc(C4CC4)ccc3n2)c1 [Example I-124, 1-((6-cyclopropylimidazo[1,2-a]pyridin-2-yl)methyl)-N-((4,6-dimethyl-1H-indol-5-yl)methyl)-1H-pyrazole-4-carboxamide]"
14,1 to 10,"O=C(NCc1cc(Cl)ccc1-n1cnnn1)c1cnn(Cc2cn3cc(C4CC4)ccc3n2)c1 [Example I-125, N-(5-chloro-2-(1H-tetrazol-1-yl)benzyl)-1-((6-cyclopropylimidazo[1,2-a]pyridin-2-yl)methyl)-1H-pyrazole-4-carboxamide]"
15,100 to 2000,"O=C(NCc1csc2ccc(Cl)cc12)c1cnn(Cc2cn3cc(C4CC4)ccc3n2)c1 [Example I-128, N-((5-chlorobenzo[b]thiophen-3-yl)methyl)-1-((6-cyclopropylimidazo[1,2-a]pyridin-2-yl)methyl)-1H-pyrazole-4-carboxamide]"
16,100 to 2000,"O=C(NCCOc1cccc(Cl)c1)c1cnn(Cc2cn3cc(C4CC4)ccc3n2)c1 [Example I-129, N-(2-(3-chlorophenoxy)ethyl)-1-((6-cyclopropylimidazo[1,2-a]pyridin-2-yl)methyl)-1H-pyrazole-4-carboxamide]"
17,2000 to 7100,"O=C(NCc1cccc2ccc(Cl)cc12)c1cnn(Cc2cn3cc(C4CC4)ccc3n2)c1 [Example I-130, N-((7-chloronaphthalen-1-yl)methyl)-1-((6-cyclopropylimidazo[1,2-a]pyridin-2-yl)methyl)-1H-pyrazole-4-carboxamide]"
18,100 to 2000,"O=C(NCc1nccc2ccc(Cl)cc12)c1cnn(Cc2cn3cc(C4CC4)ccc3n2)c1 [Example I-131, N-((7-chloroisoquinolin-1-yl)methyl)-1-((6-cyclopropylimidazo[1,2-a]pyridin-2-yl)methyl)-1H-pyrazole-4-carboxamide]"
19,100 to 2000,"O=C(NCCc1cccc(Br)c1)c1cnn(Cc2cn3cc(C4CC4)ccc3n2)c1 [Example I-132, N-(3-bromophenethyl)-1-((6-cyclopropylimidazo[1,2-a]pyridin-2-yl)methyl)-1H-pyrazole-4-carboxamide]"
20,2000 to 7100,"O=C(NCc1cccc2ccc(Br)cc12)c1cnn(Cc2cn3cc(C4CC4)ccc3n2)c1 [Example I-133, N-((7-bromonaphthalen-1-yl)methyl)-1-((6-cyclopropylimidazo[1,2-a]pyridin-2-yl)methyl)-1H-pyrazole-4-carboxamide]"
21,2000 to 7100,"Cc1cc2c(N)noc2c(C)c1CNC(=O)c1cnn(Cc2cn3cc(C4CC4)ccc3n2)c1 [Example I-134, N-((3-amino-5,7-dimethylbenzo[d]isoxazol-6-yl)methyl)-1-((6-cyclopropylimidazo[1,2-a]pyridin-2-yl)methyl)-1H-pyrazole-4-carboxamide]"
22,10 to 100,"O=C(NC1CCc2c(Cl)ccn3cnc1c23)c1cn(Cc2cn3cc(C4CC4)ccc3n2)nn1 (stereo not drawn) [Example I-135, N-(6-chloro-8,9-dihydro-7H-imidazo[4,5,1-ij]quinolin-9-yl)-1-((6-cyclopropylimidazo[1,2-a]pyridin-2-yl)methyl)-1H-1,2,3-triazole-4-carboxamide]"
23,100 to 2000,"O=C(NCc1ccc2nccn2c1)c1cn(Cc2cn3cc(C4CC4)ccc3n2)nn1 [Example I-136, 1-((6-cyclopropylimidazo[1,2-a]pyridin-2-yl)methyl)-N-(imidazo[1,2-a]pyridin-6-ylmethyl)-1H-1,2,3-triazole-4-carboxamide]"
24,100 to 2000,"O=C(NCc1ncc2c(F)cc(Cl)cn12)c1cnn(Cc2cn3cc(C4CC4)ccc3n2)c1 [Example I-137, N-((6-chloro-8-fluoroimidazo[1,5-a]pyridin-3-yl)methyl)-1-((6-cyclopropylimidazo[1,2-a]pyridin-2-yl)methyl)-1H-pyrazole-4-carboxamide]"
25,1 to 10,"COc1ccnc(CNC(=O)c2cn(Cc3cn4cc(C5CC5)cc(CCN(C)C)c4n3)nn2)c1F [Example I-138, 1-((6-cyclopropyl-8-(2-(dimethylamino)ethyl)imidazo[1,2-a]pyridin-2-yl)methyl)-N-((3-fluoro-4-methoxypyridin-2-yl)methyl)-1H-1,2,3-triazole-4-carboxamide]"
26,≤ 1,"COc1ccnc(CNC(=O)c2cn(Cc3cn4cc(C5CC5)cc(N5CCN(C)CC5)c4n3)nn2)c1F [Example I-139, 1-((6-cyclopropyl-8-(4-methylpiperazin-1-yl)imidazo[1,2-a]pyridin-2-yl)methyl)-N-((3-fluoro-4-methoxypyridin-2-yl)methyl)-1H-1,2,3-triazole-4-carboxamide]"
27,100 to 2000,"O=C(NCc1cc2occc2cn1)c1cn(Cc2cn3cc(C4CC4)ccc3n2)nn1 [Example I-140, 1-((6-cyclopropylimidazo[1,2-a]pyridin-2-yl)methyl)-N-(furo[3,2-c]pyridin-6-ylmethyl)-1H-1,2,3-triazole-4-carboxamide]"
28,10 to 100,"O=C(NCc1cc2c(cn1)CCO2)c1cn(Cc2cn3cc(C4CC4)ccc3n2)nn1 [Example I-141, 1-((6-cyclopropylimidazo[1,2-a]pyridin-2-yl)methyl)-N-((2,3-dihydrofuro[3,2-c]pyridin-6-yl)methyl)-1H-1,2,3-triazole-4-carboxamide]"
29,2000 to 7100,"O=C(NCc1cc(Cl)ccn1)c1cn(Cc2cn3cc(C4CC4)ccc3n2)nn1 [Example I-142, N-((4-chloropyridin-2-yl)methyl)-1-((6-cyclopropylimidazo[1,2-a]pyridin-2-yl)methyl)-1H-1,2,3-triazole-4-carboxamide]"
30,1 to 10,"O=C(NCc1cc2cc[nH]c2cn1)c1cn(Cc2cn3cc(C4CC4)ccc3n2)nn1 [Example I-144, N-((1H-pyrrolo[2,3-c]pyridin-5-yl)methyl)-1-((6-cyclopropylimidazo[1,2-a]pyridin-2-yl)methyl)-1H-1,2,3-triazole-4-carboxamide]"
